Source: the supplement of paper PMC10307832

Assays:
Experiment in all cases: relative viability (nuclei count vs DMSO), 5 days (fraction); higher = more cells survive
Veliparib + Dasatinib = compound: C[C@]1(c2nc3c(C(N)=O)cccc3[nH]2)CCCN1 [Veliparib] + Cc1nc(Nc2ncc(C(=O)Nc3c(C)cccc3Cl)s2)cc(N2CCN(CCO)CC2)n1 [Dasatinib] (partner 0.075 µM)
Summary of the method: (§1)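 The day after seeding in 1536-well plates, lung cancer cell lines were treated by pin tool with a single drug, or with a fixed anchor-drug dose together with five library-drug doses (not always all listed) in √10 steps. After 5 days, a combined fix-and-stain solution (final 0.05% Triton X-100, 1% formaldehyde, 1 ug/ml Hoechst) was added. Nuclei counted on 4× images gave relative viability as treated counts over vehicle counts, reported as the median of duplicate plates.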

[1] = compound: COC1=CC=C(C=C1)CN2C=CC3=C2C=C(C=C3)C(=O)NO + Nc1ncn([C@H]2C[C@H](O)[C@@H](CO)O2)c(=O)n1 [Decitabine] (partner 2 µM)
Summary of the method: as §1

Veliparib + Luminespib = compound: C[C@]1(c2nc3c(C(N)=O)cccc3[nH]2)CCCN1 [Veliparib] + CCNC(=O)c1noc(-c2cc(C(C)C)c(O)cc2O)c1-c1ccc(CN2CCOCC2)cc1 [Luminespib] (partner 0.01 µM)
Summary of the method: as §1

[2] = compound: COC1=CC=C(C=C1)CN2C=CC3=C2C=C(C=C3)C(=O)NO + CC(C)C[C@H](NC(=O)[C@H](Cc1ccccc1)NC(=O)c1cnccn1)B(O)O [Bortezomib] (partner 0.002 µM)
Summary of the method: as §1

Cell Line	relative viability (Veliparib + Dasatinib; first compound 0.02 µM)	relative viability (Veliparib + Dasatinib; first compound 0.06325 µM)	relative viability (Veliparib + Dasatinib; first compound 0.2 µM)	relative viability (Veliparib + Dasatinib; first compound 0.6325 µM)	relative viability (Veliparib + Dasatinib; first compound 2 µM)	relative viability ([1]; first compound 0.08 µM)	relative viability ([1]; first compound 0.253 µM)	relative viability ([1]; first compound 0.8 µM)	relative viability ([1]; first compound 2.53 µM)	relative viability ([1]; first compound 8 µM)	relative viability (Veliparib + Luminespib; first compound 0.02 µM)	relative viability (Veliparib + Luminespib; first compound 0.06325 µM)	relative viability (Veliparib + Luminespib; first compound 0.2 µM)	relative viability (Veliparib + Luminespib; first compound 0.6325 µM)	relative viability (Veliparib + Luminespib; first compound 2 µM)	relative viability ([2]; first compound 0.08 µM)	relative viability ([2]; first compound 0.253 µM)	relative viability ([2]; first compound 0.8 µM)	relative viability ([2]; first compound 2.53 µM)	relative viability ([2]; first compound 8 µM)
NCI-H441	0.502	0.572	0.591	0.558	0.691	0.258	0.239	0.258	0.237	0.276	0.316	0.288	0.377	0.339	0.375	0.331	0.406	0.543	0.497	0.413
NCI-H460	0.456	0.393	0.419	0.466	0.479	0.457	0.461	0.468	0.432	0.43	0.0408	0.0256	0.0384	0.0245	0.0352	1.02	0.984	1.04	1.14	1.01
NCI-H520	0.194	0.233	0.176	0.168	0.188	0.517	0.481	0.484	0.495	0.551	0.224	0.239	0.221	0.205	0.247	0.218	0.722	0.64	0.751	0.525
NCI-H596	0.611	0.571	0.641	0.521	0.633	1.04	1.78	1.15	0.922	1	0.975	1.02	1.17	0.889	0.919	1.04		0.943	1.07	1.02
NCI-H647	0.164	0.187	0.243	0.165	0.192	0.509	0.401	0.434	0.426	0.405	0.249	0.142	0.195	0.12	0.359	0.789	0.929	0.848	0.846	1.11
NCI-H650	0.378	0.372	0.414	0.369	0.423	0.298	0.306	0.359	0.3	0.296	0.768	0.708	0.652	0.721	0.797	0.832	0.732	0.881	0.928	0.64
NCI-H661	0.886	0.846	0.777	0.86	0.869		0.591	0.61	0.519	0.44	0.863	0.931	0.839	0.785	0.934		0.811	0.649	0.843	0.715
NCI-H727	0.267	0.365	0.305	0.47	0.331	0.813	0.866	0.792	0.705	0.909	0.442	0.33	0.364	0.265	0.353	0.834	0.98	1.09	0.908	0.755
